According to ChEMBL document CHEMBL2073917, “Polymethoxylated flavones in orange juice are inhibitors of P-glycoprotein but not cytochrome P450 3A4” (J Pharmacol Exp Ther, 2000):

Tests used:
Assay type in all cases: functional, cell-based
Conditions in all cases: pig, llc-pk1, 20 µM
[1] = target: T1, ATP-dependent translocase ABCB1 (Homo sapiens, UniProt P08183); experiment: TP_TRANSPORTER: increase in Vinblastine uptake (Vinblastine: 0.02 uM, HMF: 20 uM) in MDR1-expressing LLC-PK1 cells
[2] = target: T1, ATP-dependent translocase ABCB1; experiment: TP_TRANSPORTER: increase in Vinblastine uptake (Vinblastine: 0.02 uM, Nobiletin: 20 uM) in MDR1-expressing LLC-PK1 cells
[3] = target: T1, ATP-dependent translocase ABCB1; experiment: TP_TRANSPORTER: increase in Vinblastine uptake (Vinblastine: 0.02 uM, Tangeretin: 20 uM) in MDR1-expressing LLC-PK1 cells

T1 sequence (P08183 whole entry): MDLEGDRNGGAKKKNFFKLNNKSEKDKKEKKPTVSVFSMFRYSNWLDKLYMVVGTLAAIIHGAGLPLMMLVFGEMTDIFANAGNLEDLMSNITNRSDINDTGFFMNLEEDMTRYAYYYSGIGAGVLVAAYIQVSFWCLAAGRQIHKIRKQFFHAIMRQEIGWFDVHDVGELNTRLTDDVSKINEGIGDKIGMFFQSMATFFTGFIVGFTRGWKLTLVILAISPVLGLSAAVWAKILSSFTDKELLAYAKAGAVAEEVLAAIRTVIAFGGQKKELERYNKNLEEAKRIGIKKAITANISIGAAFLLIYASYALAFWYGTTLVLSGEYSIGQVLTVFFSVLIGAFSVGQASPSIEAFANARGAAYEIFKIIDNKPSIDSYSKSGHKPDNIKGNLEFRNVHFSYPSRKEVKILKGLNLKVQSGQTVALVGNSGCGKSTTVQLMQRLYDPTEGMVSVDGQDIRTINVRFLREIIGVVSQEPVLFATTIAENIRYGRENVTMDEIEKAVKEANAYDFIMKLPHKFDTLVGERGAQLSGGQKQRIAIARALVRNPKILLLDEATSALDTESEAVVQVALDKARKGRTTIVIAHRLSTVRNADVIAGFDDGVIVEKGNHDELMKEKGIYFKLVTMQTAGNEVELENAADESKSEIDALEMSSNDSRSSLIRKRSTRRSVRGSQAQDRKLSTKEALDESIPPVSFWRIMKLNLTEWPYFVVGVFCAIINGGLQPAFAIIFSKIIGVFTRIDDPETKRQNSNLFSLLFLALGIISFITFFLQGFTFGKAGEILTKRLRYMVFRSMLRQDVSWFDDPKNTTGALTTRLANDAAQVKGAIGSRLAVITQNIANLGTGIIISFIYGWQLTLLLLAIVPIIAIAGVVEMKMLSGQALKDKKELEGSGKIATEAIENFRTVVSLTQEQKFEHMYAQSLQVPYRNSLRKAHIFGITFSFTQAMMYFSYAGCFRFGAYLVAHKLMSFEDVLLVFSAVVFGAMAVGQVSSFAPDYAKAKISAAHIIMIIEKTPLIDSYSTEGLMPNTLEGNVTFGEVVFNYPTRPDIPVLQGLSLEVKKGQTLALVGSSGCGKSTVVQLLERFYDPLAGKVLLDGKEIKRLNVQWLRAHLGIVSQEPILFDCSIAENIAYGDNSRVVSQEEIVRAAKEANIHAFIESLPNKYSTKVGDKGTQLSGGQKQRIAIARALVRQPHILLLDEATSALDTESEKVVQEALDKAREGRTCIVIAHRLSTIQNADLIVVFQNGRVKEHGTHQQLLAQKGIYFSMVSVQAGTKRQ

In the case of `COc1ccc(-c2oc3c(OC)c(OC)c(OC)c(OC)c3c(=O)c2OC)cc1OC` [3,5,6,7,8,3',4'-HEPTAMETHOXYFLAVONE], the Activity [1] is reported as 935%.
Work on `COc1ccc(-c2cc(=O)c3c(OC)c(OC)c(OC)c(OC)c3o2)cc1OC` [NOBILETIN] yielded an Activity [2] of 604%.
`COc1ccc(-c2cc(=O)c3c(OC)c(OC)c(OC)c(OC)c3o2)cc1` [TANGERETIN] gave an Activity [3] of 175%.
